According to patent US8629143B2, “Potassium channel modulators” (AbbVie Inc., priority 2009, dated 2014):

Target: T1, KCNQ 2/3 channels (HEK293 cells stably expressing human KCNQ2 and KCNQ3 subunits) (Homo sapiens, UniProt O43525+O43526)
T1 construct: expressed in transfected cells; host or cells: HEK293
Test: KCNQ2/3 channel activation, thallium flux FLIPR assay with BTC-AM dye
Assay type: cell-based
Settings: for Emax: HEK293, maximum response relative to the response produced by 10 μM retigabine (set at 100%), read-out: Max. %; for EC50: HEK293 cells expressing human KCNQ2 and KCNQ3, thallium flux, FLIPR
In short: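 HEK293 cells stably expressing human KCNQ2/KCNQ3 were loaded with BTC-AM (3 μg/mL, 2 h, RT) and preincubated with compound for 4 min in pH 7.3 gluconate buffer containing 0.1 mM ouabain. Flux was triggered by 6 mM TlNO3/10 mM K2SO4 and read for 3 min; EC50 came from summed responses over basal, with maximum relative to 10 μM retigabine (100%).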

| Emax [%] | EC50 [µM] | Structure (SMILES) |
| --- | --- | --- |
| -3 | > 10 | O=C(CC12CC3CC(CC(O)(C3)C1)C2)Nn1nc(-c2ccccc2)c2ccsc2c1=O [Example 180, 2-(3-hydroxyadamantan-1-yl)-N-(7-oxo-4-phenylthieno[2,3-d]pyridazin-6(7H)-yl)acetamide] |
| 119 | 0.5 to 1 | O=C(Cc1ccc(Cl)c(F)c1)Nn1nc(-c2ccc(Cl)cc2)c2ccccc2c1=O [Example 114, 2-(4-chloro-3-fluorophenyl)-N-[4-(4-chlorophenyl)-1-oxophthalazin-2(1H)-yl]acetamide] |
| 136 | 0.1 to 0.5 | O=C(Cc1cc(F)cc(F)c1)Nn1nc(-c2ccccc2)c2c(c1=O)CCCC2 [Example 186, 2-(3,5-difluorophenyl)-N-(1-oxo-4-phenyl-5,6,7,8-tetrahydrophthalazin-2(1H)-yl)acetamide] |
| 195 | < 0.1 | O=C(C[C@H]1C[C@@H]2CC[C@H]1C2)Nn1nc(C2(c3ccccc3)CC2)c2ccccc2c1=O (racemic) [Example 172, (±)-2-(exo-bicyclo[2.2.1]hept-2-yl)-N-[1-oxo-4-(1-phenylcyclopropyl)phthalazin-2(1H)-yl]acetamide] |
| 154 | 0.1 to 0.5 | O=C(C[C@@H]1C[C@@H]2CC[C@H]1C2)Nn1nc(-c2ccc(C(F)(F)F)cc2)c2ccccc2c1=O [Example 147, 2-[(1S,2S,4R)-bicyclo[2.2.1]hept-2-yl]-N-{1-oxo-4-[4-(trifluoromethyl)phenyl]phthalazin-2(1H)-yl}acetamide] |
| 143 | < 0.1 | O=C(C[C@@H]1C[C@@H]2CC[C@H]1C2)Nn1nc(-c2ccc(F)cc2)c2ccccc2c1=O [Example 129, 2-[(1S,2S,4R)-bicyclo[2.2.1]hept-2-yl]-N-[4-(4-fluorophenyl)-1-oxophthalazin-2(1H)-yl]acetamide] |
| 139 | 0.1 to 0.5 | CC(C)c1ccc(-c2nn(NC(=O)CC34CC5CC(CC(C5)C3)C4)c(=O)c3ccccc23)cc1 [Example 169, 2-(adamantan-1-yl)-N-[4-(4-isopropylphenyl)-1-oxophthalazin-2(1H)-yl]acetamide] |
| 80 | 0.5 to 1 | O=C(Cc1cccc(OC(F)(F)F)c1)Nn1nc(-c2ccc(Cl)cc2)c2ccccc2c1=O [Example 98, N-[4-(4-chlorophenyl)-1-oxophthalazin-2(1H)-yl]-2-[3-(trifluoromethoxy)phenyl]acetamide] |
| 139 | 1 to 10 | O=C(Cc1cccc(F)c1F)Nn1nc(-c2ccccc2)c2ccccc2c1=O [Example 25, 2-(2,3-difluorophenyl)-N-(1-oxo-4-phenylphthalazin-2(1H)-yl)acetamide] |
| 139 | < 0.1 | O=C(CC1CC2CCC1C2)Nn1nc(Cc2ccc(Cl)cc2)c2ccccc2c1=O (racemic) [Example 144, (±)-2-(exo-bicyclo[2.2.1]hept-2-yl)-N-[4-(4-chlorobenzyl)-1-oxophthalazin-2(1H)-yl]acetamide] |
| 140 | 0.1 to 0.5 | O=C(Cc1cccc(Cl)c1)Nn1nc(-c2ccc(Cl)cc2)c2ccccc2c1=O [Example 103, 2-(3-chlorophenyl)-N-[4-(4-chlorophenyl)-1-oxophthalazin-2(1H)-yl]acetamide] |
| 134 | 0.5 to 1 | CC(C)c1ccc(-c2nn(NC(=O)Cc3cc(F)cc(F)c3)c(=O)c3ccccc23)cc1 [Example 171, 2-(3,5-difluorophenyl)-N-[4-(4-isopropylphenyl)-1-oxophthalazin-2(1H)-yl]acetamide] |
| 136 | < 0.1 | COc1ccc(-c2nn(NC(=O)CC34CC5CC(CC(C5)C3)C4)c(=O)c3ccccc23)cc1 [Example 154, 2-(adamantan-1-yl)-N-[4-(4-methoxyphenyl)-1-oxophthalazin-2(1H)-yl]acetamide] |
| 95 | 0.1 to 0.5 | Cc1ccc(-c2nn(NC(=O)Cc3ccc(Cl)cc3)c(=O)c3ccccc23)cc1 [Example 135, 2-(4-chlorophenyl)-N-[4-(4-methylphenyl)-1-oxophthalazin-2(1H)-yl]acetamide] |
| 137 | 0.1 to 0.5 | O=C(CC1CC2CCC1C2)Nn1nc(C(F)(F)F)c2ccccc2c1=O (racemic) [Example 58, (±)-2-(exo-bicyclo[2.2.1]heptan-2-yl)-N-[1-oxo-4-(trifluoromethyl)phthalazin-2(1H)-yl]acetamide] |
| 214 | < 0.1 | CC(C)c1nn(NC(=O)CC23CC4CC(CC(F)(C4)C2)C3)c(=O)c2ccccc12 [Example 60, 2-(3-fluoroadamantan-1-yl)-N-(4-isopropyl-1-oxophthalazin-2(1H)-yl)acetamide] |
| 124 | 0.1 to 0.5 | O=C(Cc1ccc(Cl)cc1)Nn1nc(C2CCC2)c2ccccc2c1=O [Example 70, 2-(4-chlorophenyl)-N-(4-cyclobutyl-1-oxophthalazin-2(1H)-yl)acetamide] |
| 140 | 1 to 10 | O=C(CC1CC2CCC1C2)Nn1nc(-c2ccc(C(=O)O)cc2)c2ccccc2c1=O (racemic) [Example 78, (±)-4-(3-{[(exo-bicyclo[2.2.1]heptan-2-yl)acetyl]amino}-4-oxo-3,4-dihydrophthalazin-1-yl)benzoic acid] |
| 189 | 0.1 to 0.5 | O=C(Cc1cc(F)cc(F)c1)Nn1nc(-c2ccccc2)c2ccccc2c1=O [Example 18, 2-(3,5-difluorophenyl)-N-(1-oxo-4-phenylphthalazin-2(1H)-yl)acetamide] |
| 150 | < 0.1 | O=C(CC1CC2CCC1C2)Nn1nc(-c2cccc(Cl)c2)c2ccccc2c1=O (racemic) [Example 125, (±)-2-(exo-bicyclo[2.2.1]hept-2-yl)-N-[4-(3-chlorophenyl)-1-oxophthalazin-2(1H)-yl]acetamide] |
| 144 | < 0.1 | O=C(CC1CC2CCC1C2)Nn1nc(CCc2ccccc2)c2ccccc2c1=O (racemic) [Example 167, (±)-2-(exo-bicyclo[2.2.1]hept-2-yl)-N-[1-oxo-4-(2-phenylethyl)phthalazin-2(1H)-yl]acetamide] |
| 26 | > 10 | CC(C)c1nn(NC(=O)CC23CC4CC(CC(O)(C4)C2)C3)c(=O)c2ccccc12 [Example 61, 2-(3-hydroxyadamantan-1-yl)-N-(4-isopropyl-1-oxophthalazin-2(1H)-yl)acetamide] |
| 30 | 1 to 10 | O=C(Cc1ccc(Cl)cc1)Nn1nc(-c2ccccc2)c2ccsc2c1=O [Example 31, 2-(4-chlorophenyl)-N-(7-oxo-4-phenylthieno[2,3-d]pyridazin-6(7H)-yl)acetamide] |
| 144 | < 0.1 | O=C(CC12CC3CC(CC(C3)C1)C2)Nn1nc(-c2ccccc2)c2c(c1=O)CCCC2 [Example 185, 2-(adamantan-1-yl)-N-(1-oxo-4-phenyl-5,6,7,8-tetrahydrophthalazin-2(1H)-yl)acetamide] |
| 126 | < 0.1 | CC(C)(CC(=O)Nn1nc(Cc2ccccc2)c2ccccc2c1=O)c1ccccc1 [Example 140, N-(4-benzyl-1-oxophthalazin-2(1H)-yl)-3-methyl-3-phenylbutanamide] |
| 7 | > 10 | CN(C)c1ccc(CC(=O)Nn2nc(C(F)(F)F)c3ccccc3c2=O)cc1 [Example 47, 2-[4-(dimethylamino)phenyl]-N-[1-oxo-4-(trifluoromethyl)phthalazin-2(1H)-yl]acetamide] |
| 123 | 0.1 to 0.5 | O=C(Cc1ccc(Cl)cc1)Nn1nc(-c2ccc(F)cc2)c2ccccc2c1=O [Example 132, 2-(4-chlorophenyl)-N-[4-(4-fluorophenyl)-1-oxophthalazin-2(1H)-yl]acetamide] |
| 112 | 0.1 to 0.5 | Cc1ccc(-c2nn(NC(=O)Cc3ccc(Cl)cc3)c(=O)c3ccccc23)cc1C [Example 165, 2-(4-chlorophenyl)-N-[4-(3,4-dimethylphenyl)-1-oxophthalazin-2(1H)-yl]acetamide] |
